We go through 4 compounds from patent US20100056536A1, “METHOD OF TREATING ATRIAL FIBRILLATION” (priority 2008, published 2010).

In series [1] the target is T1, peak sodium channel current (INa) in canine atrial myocytes (Canis lupus familiaris, UniProt Q865W3).
T1 construct: Whole-cell peak sodium currents were recorded at 37° C. in low-sodium external solution from myocytes isolated; endogenous in cells; host or cells: myocytes isolated from right atrium and left ventricle of adult mongrel dogs
The series is described as follows: Whole-cell patch clamp, steady-state inactivation of sodium current in atrial myocytes. Format: cell-based. The settings on record: 15 μM ranolazine, n=5, before drug −86.35±0.19. The procedure:
(§1) FIG. 1 presents the voltage dependence of activation and steady-state inactivation of sodium current in canine atrial versus ventricular myocytes. (A) Current-voltage relationship for sodium current in ventricular and atrial myocytes. […] (B) Summarized steady-state inactivation curves. […] Insets show representative atrial and ventricular traces after 1-s conditioning pulses to the indicated potentials. (C) Steady-state inactivation curves before and after addition of 15 μM ranolazine.
(§2) The electrophysiological effects of therapeutic concentrations of ranolazine (1 to 10μmol/L) and lidocaine (2.1 to 21 μmol/L) were evaluated in canine isolated coronary-perfused atrial and ventricular preparations.
(§3) Whole-cell peak sodium currents were recorded at 37° C. in low-sodium external solution from myocytes isolated from the right atrium and left ventricle (LV) of adult mongrel dogs.
Background: Patch clamp records ionic current or voltage across a cell membrane.

For series [2], the target named is T2, peak sodium channel current (INa) in canine ventricular myocytes (Canis lupus familiaris, UniProt Q865W3).
T2 construct: Whole-cell peak sodium currents were recorded at 37° C. in low-sodium external solution from myocytes isolated; endogenous in cells; host or cells: myocytes isolated from right atrium and left ventricle of adult mongrel dogs
Put plainly: Whole-cell patch clamp, steady-state inactivation of sodium current in ventricular myocytes. It counts as cell-based. The settings on record: 15 μM ranolazine, before drug −72.53±0.16. The procedure:
as §1, §2, §3

Series [3] deals with self-terminating AF in atria exposed to ischemia and β-adrenergic agonists. The series is described as follows: AF induced by ischemia and β-adrenergic agonists in atria. It counts as cell-based, canine. The note with it: ranolazine 5-10 μM. An excerpt:
Ischemia/reperfusion coupled with iso-proterenol mimics the conditions that prevail during acute myocardial infarction or the substrate encountered postsurgically.

Series [4] concerns canine superfused PV sleeve preparations. Put plainly: Action potential recording in superfused pulmonary vein (PV) sleeve preparations. It counts as cell-based. The method, then:
Action potentials (AP) were recorded from canine superfused PV sleeves using microelectrode techniques. Acetylcholine (ACh, 1 μM), isoproterenol (Iso, 1 μM), or their combination was used to induce EADs, DADs, and triggered activity.

For the next series, the system named is Purkinje fibers. Put plainly: Action potential duration in Purkinje fibers. Format: cell-based, canine. The settings on record: ranolazine 1 to 10 μmol/L. The method, then: as §2
A further series has as its target T3, late INa (Canis lupus familiaris, UniProt Q865W3).
T3 construct: host or cells: canine ventricular myocytes
The settings on record: canine ventricular myocytes; read-out: IC50 for inhibition of late INa; cited from earlier work.

The next series deals with T4, peak INa (Canis lupus familiaris, UniProt Q865W3).
T4 construct: […]; host or cells: canine ventricular myocytes
The note with it: canine ventricular myocytes; read-out: IC50 for inhibition of peak INa; cited from earlier work.

In series [5] the test system is ventricular Purkinje fibers and M cell preparations. The note with it: paced at a CL of 500 ms; read-out: IC50 for suppression of Vmax; cited from earlier work.
The target of series [6] is T5, rapidly activating delayed rectifier potassium current (IKr) (Canis lupus familiaris, UniProt Q9TSZ3).
T5 sequence (Q9TSZ3 1-1158): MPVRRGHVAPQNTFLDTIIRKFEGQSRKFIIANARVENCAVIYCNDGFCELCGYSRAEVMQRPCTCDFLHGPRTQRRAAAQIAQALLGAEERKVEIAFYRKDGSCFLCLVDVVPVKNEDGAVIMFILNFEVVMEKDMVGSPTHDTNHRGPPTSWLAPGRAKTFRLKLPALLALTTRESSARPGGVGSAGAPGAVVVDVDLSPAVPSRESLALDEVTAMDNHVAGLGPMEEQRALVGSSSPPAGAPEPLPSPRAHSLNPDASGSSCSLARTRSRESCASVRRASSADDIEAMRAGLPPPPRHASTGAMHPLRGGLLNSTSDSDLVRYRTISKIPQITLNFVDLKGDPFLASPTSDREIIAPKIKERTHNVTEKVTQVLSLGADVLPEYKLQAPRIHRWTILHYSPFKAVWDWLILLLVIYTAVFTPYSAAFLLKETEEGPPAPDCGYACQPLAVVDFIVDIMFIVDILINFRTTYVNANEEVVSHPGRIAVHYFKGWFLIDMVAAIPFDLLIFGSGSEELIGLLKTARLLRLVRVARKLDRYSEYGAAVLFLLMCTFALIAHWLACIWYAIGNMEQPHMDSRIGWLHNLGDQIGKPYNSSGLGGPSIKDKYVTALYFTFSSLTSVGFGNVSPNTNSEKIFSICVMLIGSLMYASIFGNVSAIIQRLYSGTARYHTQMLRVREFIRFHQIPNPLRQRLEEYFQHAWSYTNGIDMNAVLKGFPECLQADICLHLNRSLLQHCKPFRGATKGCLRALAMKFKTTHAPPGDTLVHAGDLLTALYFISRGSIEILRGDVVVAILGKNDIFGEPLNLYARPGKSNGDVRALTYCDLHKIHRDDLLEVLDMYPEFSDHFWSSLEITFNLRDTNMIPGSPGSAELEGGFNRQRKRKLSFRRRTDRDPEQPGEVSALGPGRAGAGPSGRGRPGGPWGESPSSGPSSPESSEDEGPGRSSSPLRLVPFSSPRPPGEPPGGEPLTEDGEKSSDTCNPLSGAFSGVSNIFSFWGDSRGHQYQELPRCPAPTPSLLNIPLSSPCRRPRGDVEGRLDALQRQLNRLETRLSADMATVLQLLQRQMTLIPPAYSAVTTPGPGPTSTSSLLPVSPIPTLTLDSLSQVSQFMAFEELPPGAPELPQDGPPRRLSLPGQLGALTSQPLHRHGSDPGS
The settings on record: read-out: IC50 for block of IKr; cited from earlier work.

Series [7] relates to acetylcholine-mediated AF in coronary artery-perfused right atrial preparations. The series is described as follows: Acetylcholine-mediated persistent AF in coronary artery-perfused right atrial preparations. The settings on record: for Termination of AF (share of preparations): acetylcholine (0.5 μM) persistent AF, ranolazine 10.0 μM, lidocaine 21.0 μM, propafenone 1.5-3.0 μM.

Series [8] has as its system arterially-perfused right atrial preparations. The series is described as follows: Transmembrane action potentials in arterially-perfused right atrial preparations (Example 4). The settings on record: for action potential duration of pectinate muscle (PM-APD75): untreated 154±11.
Text: Floating microelectrode techniques were used to record transmembrane action potentials (BCL=500 ms).
Series [9] relates to canine left ventricular arterially perfused wedge preparations. Put plainly: Electrophysiology (APD90, sodium channel-dependent parameters) in arterially perfused ventricular wedge preparations. The settings on record: for DTE (% Δ) Ventricles, diastolic threshold of excitation: ranolazine 10 μM, lidocaine 21 μM, propafenone 1.5 μM; for effect on APD90 in ventricular myocardium, in words: ranolazine 1 to 10 μmol/L, lidocaine 2.1 to 21 μmol/L.
Experimental: (§4) Experiments were performed using isolated arterially perfused canine right atrial preparations and left ventricular arterially perfused wedge preparations (Antzelevitch et al. Circulation. 2004;110:904-910, Burashnikov et al. Am J Physiol. 2004;286:H2393-H2400., and Burashnikov et al. Circulation. 2003;107:2355-2360.) Therapeutic plasma concentrations of ranolazine (1-10 μM), lidocaine (2.1-21 μM), and propafenone (0.3-3.0 μM) were examined.
(§5) Sodium channel-mediated parameters, such as the maximum rate of rise of the AP upstroke (Vmax), conduction velocity (CV), diastolic threshold of excitation (DTE), and post-repolarization refractoriness (PRR) were evaluated. PRR was defined as the difference between action potential duration (APD) and atrial effective refractory period (ERP).

The subject of series [10] is canine isolated coronary artery-perfused right atrial preparations. Put plainly: Electrophysiology (APD90, sodium channel-dependent parameters) in isolated coronary artery-perfused atrial preparations. The note with it: for effect on action potential duration (APD90) in atria, in words: ranolazine 1 to 10 μmol/L, lidocaine 2.1 to 21 μmol/L.
Experimental: as §4, §5
Where [11] appears, read: drug alone: chronic Amio (6 weeks, 40 mg/kg daily) PV sleeves, or 10 μM ranolazine in untreated controls, untreated 124 ms.
Where [12] appears, read: acute ranolazine 5 μM in chronic AMIO treated atria, BCL=500 ms.
Setting [13] is: drug alone: chronic AMIO (40 mg/kg daily for 6 weeks) or acute ranolazine 5 μM in untreated atria, BCL=500 ms.
Setting [14] is: drug alone: chronic AMIO (40 mg/kg daily for 6 weeks) or acute ranolazine 5 μM in untreated atria, BCL=500 ms, untreated 158±18.

Where only a bound is given, the exact number is not on record here.

By IC50 is commonly meant the point on the concentration scale where inhibition reaches its midpoint. `COc1ccccc1OCC(O)CN1CCN(CC(=O)Nc2c(C)cccc2C)CC1` (racemic) [Ranolazine, (±)-N-(2,6-dimethylphenyl)-4-[2-hydroxy-3-(2-methoxyphenoxy)-propyl]-1-piperazineacetamide]: the “half-inactivation voltage (V0.5) of steady-state inactivation after ranolazine” value is listed as −91.38±0.35 mV in [1] and −74.81±0.14 mV in [2]. Besides, the “atria in which induction of AF was prevented” value in series [3] is recorded as 4 of 5. Also, the “average CL at which 2:1 activation failure developed” value in [4] (5 μM RAN superfused on chronic Amio PV sleeves, n=5) was determined as 1350 ms; in series [4] (10 μM RAN superfused on chronic Amio PV sleeves, n=5) it was 1660 ms; in series [4] (setting [11]) it was 190 ms. Moreover, the “late phase 3 EAD- and DAD-induced triggered activity” value in [4] (RAN 5-10 μM added to chronic Amio PV sleeves, Iso and/or ACh, rapid pacing) is given as “completely eliminated”. In the series with Purkinje fibers, the “effect on APD90 in Purkinje fibers, in words” value is “abbreviation”. The IC50 at late INa was 6 µM; on peak INa, 294 µM; in series [5], over 100 µM; in [6], 12 µM. Further, in series [7], the “Termination of AF (share of preparations)” value (“Termination of AF” for short) is 66% (4/6). Also, the “action potential duration APD75” value in [8] (setting [12]) turned out to be 189 ± 9 ms. In addition, the “effective refractory period (ERP)” value in series [8] (setting [12]) amounted to 258 ± 50 ms; in [8] (setting [14]), 190 ± 24 ms. For the same compound, the “action potential duration of pectinate muscle (PM-APD75)” value in series [8] (setting [13]) was found to be 159 ± 9 ms. Further, in series [8] (in presence of acetylcholine (ACh), control 71±12), the “shortest pacing CL permitting 1:1 response” value was determined as 94 ± 31 ms. The “shortest pacing CL permitting a 1:1 response” value in [8] (without acetylcholine, control 129±8) was 234 ± 49 ms. In addition, the “change (prolongation) of APD90 in ventricles” value (from here on “change (prolongation) of APD90”) in [9] (CL=500 ms) is on record as “+2%”. Besides, the “DTE (% Δ) Ventricles, diastolic threshold of excitation” value (shortened to “DTE (% Δ) Ventricles”) in series [9] (pacing cycle length 0.3 s) is recorded as 8%; in series [9] (pacing cycle length 0.5 s) it was “+3%”. Also, the “effect on APD90 in ventricular myocardium, in words” value in [9] is on record as “no effect”. Moreover, the “atrial selectivity of depression of sodium channel-dependent parameters (atria versus ventricles), in words” value in series [10] is listed as “striking atrial selectivity”. Besides, in series [10] (CL=500 ms), the “prolongation of APD90 in atria” value stood at 11%. Further, in [10], the “effect on action potential duration (APD90) in atria, in words” value was “prolongation”.

Regarding `CCCNCC(O)COc1ccccc1C(=O)CCc1ccccc1` (stereo not shown) [Propafenone, propafenone], the “Termination of AF” value in series [7] is 100% (7/7). Besides, the “change (prolongation) of APD90” value in [9] (CL=500 ms) was “+3%”. Moreover, the “DTE (% Δ) Ventricles” value is reported as 125% in series [9] (pacing cycle length 0.3 s) and “+84%” in series [9] (pacing cycle length 0.5 s). Moreover, the “prolongation of APD90 in atria” value in series [10] (CL=500 ms) came to 13%.

For `CCN(CC)CC(=O)Nc1c(C)cccc1C` [Lidocaine, lidocaine], the “Termination of AF” value in [7] is on record as 33% (2/6). The “abbreviation of APD90 in ventricles” value in [9] (CL=500 ms) is given as 9%. In addition, in series [9] (pacing cycle length 0.3 s), the “DTE (% Δ) Ventricles” value was determined as 40%. Also, the “DTE (% Δ) Ventricles” value in [9] (pacing cycle length 0.5 s) is on record as “+8%”. Moreover, the “effect on APD90 in ventricular myocardium, in words” value in [9] is reported as “abbreviated”. Further, in [10], the “atrial selectivity of depression of sodium channel-dependent parameters (atria versus ventricles), in words” value is reported as “much less atrial-selective than ranolazine or chronic amiodarone” and the “effect on action potential duration (APD90) in atria, in words” value is reported as “abbreviated”. Also, the “abbreviation of APD90 in atria” value in series [10] (CL=500 ms) came to 6%.

Regarding `CCCCc1oc2ccccc2c1C(=O)c1cc(I)c(OCCN(CC)CC)c(I)c1` [Chronic Amiodarone, amiodarone], in series [4] (PV sleeves from dogs treated with chronic Amio (6 weeks, 40 mg/kg daily), CL 1000 ms, untreated controls 314±79), the “maximal rate of rise of AP upstroke (Vmax)” value is 115±89 V/s. Also, the “average CL at which 2:1 activation failure developed” value in series [4] (setting [11]) is 420 ms. In series [7] (atria isolated from dogs chronically treated, versus 10 of 10 untreated atria), the “atria in which persistent acetylcholine-mediated AF could be induced” value was 1 of 6. Moreover, the “action potential duration of pectinate muscle (PM-APD75)” value in series [8] (setting [13]) came out at 183 ± 7 ms. Further, in series [8] (setting [14]), the “effective refractory period (ERP)” value is 222 ± 12 ms. In [9] (CL=500 ms), the “change (prolongation) of APD90” value was determined as 12%. Besides, the “prolongation of APD90 in atria” value in series [10] (CL=500 ms) is 22%.
